The record followed here is PMC7792806, “Development of Second Generation Activity-Based Chemical Probes for Sirtuins” (Molecules, 2020).

One assay concerns the target T1, SIRT3 (Homo sapiens, UniProt Q9NTG7).
T1 construct: SIRT3 (102-399); made in house
T1 sequence (Q9NTG7 102-399): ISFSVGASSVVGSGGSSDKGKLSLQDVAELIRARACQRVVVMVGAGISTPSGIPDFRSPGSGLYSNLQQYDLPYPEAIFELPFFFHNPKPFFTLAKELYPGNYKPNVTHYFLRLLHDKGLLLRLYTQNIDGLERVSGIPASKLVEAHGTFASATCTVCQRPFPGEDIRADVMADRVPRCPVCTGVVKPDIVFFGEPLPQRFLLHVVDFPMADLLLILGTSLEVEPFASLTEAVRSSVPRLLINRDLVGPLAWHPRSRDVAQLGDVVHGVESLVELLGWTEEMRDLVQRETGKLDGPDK
The assay is described as follows: Sirtuin inhibition assay (HPLC), SIRT3. It counts as biochemical. The following applies: substrate H3K9Ac; 500 μM NAD+, 500 μM peptide, 10 μM sirtuin, pH 7.5, 37 °C. The procedure:
(§1) Plasmids of SIRT1 (full length), SIRT2 (38-356), SIRT3 (102-399), and SIRT5 (34-302) were generous gifts from Dr. Hening Lin (Cornell University, Ithaca, NY, USA). SIRT6 was a gift from Cheryl Arrowsmith (Addgene plasmid #28271). The proteins were expressed and purified according to previously published protocols. The identity of the protein was confirmed by tryptic digestion followed by LC-MS/MS analysis performed at the Vermont Genetic Network (VGN) Proteomics Facility. Protein concentrations were determined by Bradford assay (Thermo Fisher Scientific, Rockford, IL, USA).
(§2) A typical reaction contained 500 μM NAD^+ and 500 μM peptide substrate (H3K9Ac for SIRT2, SIRT3 and SIRT6, p53K382Ac for SIRT1 and SIRT5) of varying concentrations of a small molecule probe in 100 mM phosphate buffer pH 7.5. The reactions were initiated by the addition of 10 μM of sirtuin and were incubated at 37 °C before being quenched by 8 μL of 10% TFA. The incubation time was controlled so that the conversion of substrate was less than 15%. The samples were then injected on an HPLC fitted to a Macherey-Nagel Nucleosil C18 column. NAD^+, NAM and AADPR (acetyl-ADP-ribose) peaks were resolved using a gradient of 0 to 20% methanol in 20 mM ammonium acetate. Chromatograms were analyzed at 260 nm. Reactions were quantified by integrating areas of peaks corresponding to NAD^+ and AADPR. Rates were plotted as a function of small molecule probe concentration, and points were fitted to the following equation:ν(%) = ν0(%) − [ν0(%)(10^x)/(10^x + IC50)](1) where ν(%) represents the turnover rate expressed as percent enzymatic activity remaining, and ν0(%) represents the uninhibited turnover rate expressed as an enzymatic activity of 100%. The variable x represents the log[probe] in nanomolar. IC50 values were derived from this equation.

Assay [1] has as its system SIRT1, SIRT2, SIRT3, SIRT5, and SIRT6. The assay can be described thus: Labeling in recombinant sirtuin mixture, isoform selectivity. It counts as biochemical, human. The procedure: Figure 4 Labeling of SIRT5 by probe 2B. (A) Dose-dependent labeling of SIRT5 by probe 2B in recombinantly expressed, partially purified sirtuin mixture. SIRT1, SIRT2, SIRT3, SIRT5, and SIRT6 were mixed and incubated with 500 μM NAD^+ and increasing concentrations of 2B. The samples were incubated at 37 °C for 10 min and subjected to UV irradiation for 20 min, and then “click” conjugated to TAMRA-azide; (B) Chemical structure of H3K9Suc; (C) Peptide competition. The labeling of SIRT5 by probe 2B decreased with increasing concentrations of the competitor peptide, H3K9Suc.
Remarkably, probe 2C was also able to label individual sirtuin isoforms in cell lysates. HEK293 cells overexpressing human SIRT2 were lysed, and the lysate was subjected to the labeling by 10 μM probe 2C.
A typical labeling experiment was performed as follows: in a 0.7 mL Eppendorf tube, purified recombinant human sirtuin (10 μM) was incubated with NAD^+ (500 μM) and activity-based probe at 37 °C for 10 min. The sample was transferred to a clear-bottom 96-well plate, placed on ice, and irradiated at 365 nm with a UV-lamp in a cold room. […] Then, destained gel was analyzed with in-gel fluorescence scanning using a Biorad ChemiDoc MP imager (excitation 532 nm, 580 nm cut-off filter and 30 nm band-pass). […]

A further assay addresses SIRT6 (Homo sapiens, UniProt Q8N6T7). The assay can be described thus: Sirtuin inhibition assay (HPLC), SIRT6. On the set-up: host or cells: E. coli (inferred from b12). To be noted: substrate H3K9Ac; 500 μM NAD+, 500 μM peptide, 10 μM sirtuin, pH 7.5, 37 °C; NI = Not inhibited. It counts as biochemical. The procedure:
as §1
A typical reaction contained 500 μM NAD^+ and 500 μM peptide substrate (H3K9Ac for SIRT2, SIRT3 and SIRT6, p53K382Ac for SIRT1 and SIRT5) of varying concentrations of a small molecule probe in 100 mM phosphate buffer pH 7.5. The reactions were initiated by the addition of 10 μM of sirtuin and were incubated at 37 °C before being quenched by 8 μL of 10% TFA. The incubation time was controlled so that the conversion of substrate was less than 15%. The samples were then injected on an HPLC fitted to a Macherey-Nagel Nucleosil C18 column. NAD^+, NAM and AADPR (acetyl-ADP-ribose) peaks were resolved using a gradient of 0 to 20% methanol in 20 mM ammonium acetate. Chromatograms were analyzed at 260 nm. Reactions were quantified by integrating areas of peaks corresponding to NAD^+ and AADPR. […]

A further assay concerns the target T2, SIRT5 (Homo sapiens, UniProt Q9NXA8).
T2 construct: SIRT5 (34-302); made in house
T2 sequence (Q9NXA8 34-302): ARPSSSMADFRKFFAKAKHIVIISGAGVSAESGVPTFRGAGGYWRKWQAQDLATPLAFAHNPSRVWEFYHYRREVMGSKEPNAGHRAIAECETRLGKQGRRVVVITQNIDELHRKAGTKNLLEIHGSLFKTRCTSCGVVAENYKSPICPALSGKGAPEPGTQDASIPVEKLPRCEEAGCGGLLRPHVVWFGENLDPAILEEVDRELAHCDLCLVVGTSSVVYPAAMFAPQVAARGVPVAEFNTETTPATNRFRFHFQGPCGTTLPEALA
The assay can be described thus: Sirtuin inhibition assay (HPLC), SIRT5. The class given is biochemical. The procedure:
as §1, §2

For the next assay, the target named is T3, SIRT2 (Homo sapiens, UniProt Q8IXJ6).
T3 construct: SIRT2 (38-356); made in house
T3 sequence (Q8IXJ6 38-356): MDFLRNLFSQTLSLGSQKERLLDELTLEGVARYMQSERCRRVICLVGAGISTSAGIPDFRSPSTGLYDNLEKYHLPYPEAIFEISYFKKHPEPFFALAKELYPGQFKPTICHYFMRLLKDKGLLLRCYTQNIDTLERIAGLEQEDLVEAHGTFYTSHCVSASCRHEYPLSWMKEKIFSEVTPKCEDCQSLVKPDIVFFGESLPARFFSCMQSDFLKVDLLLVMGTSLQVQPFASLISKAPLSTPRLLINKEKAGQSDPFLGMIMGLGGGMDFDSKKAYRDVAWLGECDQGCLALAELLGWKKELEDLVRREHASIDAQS
The assay can be described thus: Sirtuin inhibition assay (HPLC), SIRT2. It counts as biochemical. The procedure:
as §1, §2

Structures are written as SMILES. Some results are limits rather than exact numbers.

Chain of SIRT6 (Q8N6T7 whole entry): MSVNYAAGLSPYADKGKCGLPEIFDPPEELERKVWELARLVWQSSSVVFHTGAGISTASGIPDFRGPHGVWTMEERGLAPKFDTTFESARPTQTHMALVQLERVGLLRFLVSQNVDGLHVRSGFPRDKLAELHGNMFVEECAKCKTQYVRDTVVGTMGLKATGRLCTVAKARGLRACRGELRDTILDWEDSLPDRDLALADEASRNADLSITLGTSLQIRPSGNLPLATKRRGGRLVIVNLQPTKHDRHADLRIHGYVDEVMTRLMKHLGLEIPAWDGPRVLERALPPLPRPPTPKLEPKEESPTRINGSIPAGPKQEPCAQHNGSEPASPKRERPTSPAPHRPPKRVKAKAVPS

As a reminder, the IC50 is the midpoint of a concentration-inhibition curve. Take `C#CCCCC1(CCC(=O)N[C@@H](CCCCNC(=S)CCC(=O)O)C(=O)N[C@@H](C)C(=O)N[C@@H](C)C(=O)OC)N=N1` [Probe 2B]: the IC50 on SIRT3 is greater than 5 mM; against SIRT6, greater than 5 mM; against SIRT2 (substrate H3K9Ac, 500 μM NAD+, 500 μM peptide, 10 μM sirtuin, pH 7.5, 37 °C), greater than 5 mM. Further, the “labeling of other sirtuin isoforms in sirtuin mixture” value in assay [1] (partially purified recombinant sirtuin mixture) is given as “negligible labeling of the other sirtuin isoforms”. Also, the “increase of SIRT5 inhibition compared with 1B” value on SIRT5 (ratio of IC50s) is roughly 1.7 fold.
Regarding `C#CCCCC1(CCC(=O)N[C@@H](CCCCNC(=S)CCCCCCCCCCCCC)C(=O)N[C@@H](C)C(=O)N[C@@H](C)C(=O)OC)N=N1` [Probe 2C], the IC50 is greater than 2 mM on SIRT3 and greater than 5 mM on SIRT5 (substrate p53K382Ac, 500 μM NAD+, 500 μM peptide, 10 μM sirtuin, pH 7.5, 37 °C, NI = Not inhibited). The “isoforms labeled in sirtuin mixture” value in assay [1] was “highlighting SIRT1, SIRT2, and SIRT6”. Further, the “increase of SIRT2 inhibition compared with 1C” value on SIRT2 (ratio of IC50s) stood at 3 fold. In addition, the “selectivity for SIRT2 over SIRT6” value at SIRT2 (ratio of IC50s) is roughly 2 fold.
